Assays:
Format in all cases: in vivo
[1] = system: Galium (catchweed bedstraw, Galium aparine); experiment: Test A postemergence; details: Galium, post-emergence, 240 h, 125 g ai/ha, Postemergence; visual injury after approximately 10 d; 0 to 100 scale where 0 is no effect and 100 is complete control; read-out: Plant response rating, Galium
In short: (§1)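 Preemergence soil spray on seeded pots or post-emergence spray on 1–2 leaf plants, in loam–sand blend. Greenhouse ~10 d. Visual rating 0–100 against untreated plants.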

[2] = system: pigweed (Amaranthus retroflexus); experiment: Test A postemergence; details: Amaranthus retroflexus, post-emergence, 240 h, 125 g ai/ha, Postemergence; visual injury after approximately 10 d; 0 to 100 scale where 0 is no effect and 100 is complete control; read-out: Plant response rating, Pigweed
In short: as §1

[3] = system: ragweed (common ragweed, Ambrosia elatior); experiment: Test A postemergence; details: Ambrosia artemisiifolia, post-emergence, 240 h, 125 g ai/ha, Postemergence; visual injury after approximately 10 d; 0 to 100 scale where 0 is no effect and 100 is complete control; read-out: Plant response rating, Ragweed
In short: as §1

corn (Zea mays) = experiment: Test A postemergence; details: Zea mays, post-emergence, 240 h, 125 g ai/ha, Postemergence; visual injury after approximately 10 d; 0 to 100 scale where 0 is no effect and 100 is complete control
In short: as §1

[4] = system: wheat (Triticum aestivum); experiment: Test A postemergence; details: Triticum aestivum, post-emergence, 240 h, 125 g ai/ha, Postemergence; visual injury after approximately 10 d; 0 to 100 scale where 0 is no effect and 100 is complete control; read-out: Plant response rating, Wheat
In short: as §1

[5] = system: giant foxtail (Setaria faberii); experiment: Test A postemergence; details: Setaria faberi, post-emergence, 240 h, 125 g ai/ha, Postemergence; visual injury after approximately 10 d; 0 to 100 scale where 0 is no effect and 100 is complete control; read-out: Plant response rating, Foxtail, Giant
In short: as §1

[6] = system: ryegrass, Italian (Italian ryegrass, Lolium multiflorum); experiment: Test A postemergence; details: Lolium multiflorum, post-emergence, 240 h, 125 g ai/ha, Postemergence; visual injury after approximately 10 d; 0 to 100 scale where 0 is no effect and 100 is complete control; read-out: Plant response rating, Ryegrass, Italian
In short: as §1

[7] = system: barnyardgrass (Echinochloa crus-galli); experiment: Test A postemergence; details: Echinochloa crus-galli, post-emergence, 240 h, 125 g ai/ha, Postemergence; visual injury after approximately 10 d; 0 to 100 scale where 0 is no effect and 100 is complete control; read-out: Plant response rating, Barnyardgrass
In short: as §1

Kochia (Kochia scoparia) [8] = experiment: Test A postemergence; details: Bassia scoparia, post-emergence, 240 h, 125 g ai/ha, Postemergence; visual injury after approximately 10 d; 0 to 100 scale where 0 is no effect and 100 is complete control; read-out: Plant response rating, Kochia
In short: as §1

[9] = system: blackgrass (Alopecurus myosuroides); experiment: Test A postemergence; details: Alopecurus myosuroides, post-emergence, 240 h, 125 g ai/ha, Postemergence; visual injury after approximately 10 d; 0 to 100 scale where 0 is no effect and 100 is complete control; read-out: Plant response rating, Blackgrass
In short: as §1

[10] = system: pigweed (Amaranthus retroflexus); experiment: Test A preemergence; details: Amaranthus retroflexus, pre-emergence, 240 h
[11] = system: ragweed (common ragweed, Ambrosia elatior); experiment: Test A preemergence; details: Ambrosia artemisiifolia, pre-emergence, 240 h
In short: as §1

[12] = system: giant foxtail (Setaria faberii); experiment: Test A preemergence; details: Setaria faberi, pre-emergence, 240 h
In short: as §1

[13] = system: ryegrass, Italian (Italian ryegrass, Lolium multiflorum); experiment: Test A preemergence; details: Lolium multiflorum, pre-emergence, 240 h
In short: as §1

[14] = system: barnyardgrass (Echinochloa crus-galli); experiment: Test A preemergence; details: Echinochloa crus-galli, pre-emergence, 240 h
In short: as §1

Kochia (Kochia scoparia) [15] = experiment: Test A preemergence; details: Bassia scoparia, pre-emergence, 240 h
In short: as §1

[16] = system: ducksalad (Heteranthera limosa); experiment: Test B flooded paddy test; details: Heteranthera limosa, Flood, 250 g ai/ha; scale of 0 to 100 where 0 is no effect and 100 is complete control; read-out: Ducksalad plant response rating
In short: (§2)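 Compound goes directly into floodwater once pots are flooded 3 cm above soil, targeting plants at two leaves; the water depth is then held for the test duration. Plants sit 13–15 d in a greenhouse and are rated visually, 100 denoting complete control.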

[17] = system: sedge, umbrella (small-flower umbrella sedge, Cyperus difformis); experiment: Test B flooded paddy test; details: Cyperus difformis, Flood, 250 g ai/ha; scale of 0 to 100 where 0 is no effect and 100 is complete control; read-out: Sedge, Umbrella plant response rating
In short: as §2

[18] = system: barnyardgrass (Echinochloa crus-galli); experiment: Test B flooded paddy test; details: Echinochloa crus-galli, Flood, 250 g ai/ha; scale of 0 to 100 where 0 is no effect and 100 is complete control; read-out: Barnyardgrass plant response rating
In short: as §2

rice (Oryra sativa) = experiment: Test B flooded paddy test; details: Oryza sativa, Flood, 250 g ai/ha; scale of 0 to 100 where 0 is no effect and 100 is complete control; read-out: Rice plant response rating
In short: as §2

## O=C1NC[C@H](c2cc(C(F)(F)F)cs2)[C@H]1C(=O)Nc1cccc(F)c1F [Compound 961]
[1]
  pest or weed control at 125 g/ha: 30%
[2]
  pest or weed control at 125 g/ha: 0%
[3]
  pest or weed control at 125 g/ha: 20%
Corn (Zea mays)
  Corn plant response rating (crop injury, 0 = no effect, 100 = complete kill) at 125 g/ha: 20%
[4]
  plant injury at 125 g/ha: 0%
[5]
  pest or weed control at 125 g/ha: 30%
[6]
  pest or weed control at 125 g/ha: 20%
[7]
  pest or weed control at 125 g/ha: 90%
Kochia (Kochia scoparia) [8]
  pest or weed control at 125 g/ha: 50%
[9]
  pest or weed control at 125 g/ha: 30%
[10]; 125 g ai/ha, Preemergence, visual injury rating after approximately 10 d, read-out: Pigweed plant response rating (0 to 100 scale, 0 is no effect, 100 is complete control)
  pest or weed control at 125 g/ha: 0%
[10]; 500 g ai/ha, preemergence, visual injury rating about 10 d after treatment, 0 to 100 scale (0 no effect, 100 complete control), read-out: Pigweed plant response rating
  pest or weed control at 500 g/ha: 30%
[11]; 125 g ai/ha, Preemergence, visual injury rating after approximately 10 d, read-out: Ragweed plant response rating (0 to 100 scale, 0 is no effect, 100 is complete control)
  pest or weed control at 125 g/ha: 60%
[11]; 500 g ai/ha, preemergence, visual injury rating about 10 d after treatment, 0 to 100 scale (0 no effect, 100 complete control), read-out: Ragweed plant response rating
  pest or weed control at 500 g/ha: 90%
[12]; 125 g ai/ha, Preemergence, visual injury rating after approximately 10 d, read-out: Foxtail, Giant plant response rating (0 to 100 scale, 0 is no effect, 100 is complete control)
  pest or weed control at 125 g/ha: 70%
[12]; 500 g ai/ha, preemergence, visual injury rating about 10 d after treatment, 0 to 100 scale (0 no effect, 100 complete control), read-out: Foxtail, Giant plant response rating
  pest or weed control at 500 g/ha: 90%
[13]; 125 g ai/ha, Preemergence, visual injury rating after approximately 10 d, read-out: Ryegrass, Italian plant response rating (0 to 100 scale, 0 is no effect, 100 is complete control)
  pest or weed control at 125 g/ha: 30%
[13]; 500 g ai/ha, preemergence, visual injury rating about 10 d after treatment, 0 to 100 scale (0 no effect, 100 complete control), read-out: Ryegrass, Italian plant response rating
  pest or weed control at 500 g/ha: 80%
[14]; 125 g ai/ha, Preemergence, visual injury rating after approximately 10 d, read-out: Barnyardgrass plant response rating (0 to 100 scale, 0 is no effect, 100 is complete control)
  pest or weed control at 125 g/ha: 90%
[14]; 500 g ai/ha, preemergence, visual injury rating about 10 d after treatment, 0 to 100 scale (0 no effect, 100 complete control), read-out: Barnyardgrass plant response rating
  pest or weed control at 500 g/ha: 90%
Kochia (Kochia scoparia) [15]; 125 g ai/ha, Preemergence, visual injury rating after approximately 10 d, read-out: Kochia plant response rating (0 to 100 scale, 0 is no effect, 100 is complete control)
  pest or weed control at 125 g/ha: 70%
Kochia (Kochia scoparia) [15]; 500 g ai/ha, preemergence, visual injury rating about 10 d after treatment, 0 to 100 scale (0 no effect, 100 complete control), read-out: Kochia plant response rating
  pest or weed control at 500 g/ha: 90%
[16]
  pest or weed control at 250 g/ha: 100%
[17]
  pest or weed control at 250 g/ha: 0%
[18]
  pest or weed control at 250 g/ha: 40%
Rice (Oryra sativa)
  pest or weed control at 250 g/ha: 20%

Source: patent US12077503B2, “Substituted cyclic amides and their use as herbicides” (FMC CORPORATION, priority 2015, dated 2024)
